Experimental findings from patent US9708314B2, “Heterocyclic amide compound” (NISSAN CHEMICAL INDUSTRIES, LTD., priority 2013, dated 2017) are described below.

Holding throughout (format): in vivo
The test system of experiment [1] is Scirpus juncoides. The experiment is described as follows: Test Example 2: herbicidal activity, application during weed generation in submerged conditions. The settings on record: Eighteenth Table; application herbicide amount 320 g/ha. Put shortly: (§1)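 Seeds were sown together in alluvial soil kept under 4 cm of water and grown at 25 °C to 30 °C. Once plants reached the one- to two-leaf stage, the diluted emulsion was applied to the water surface at a predetermined g/ha amount, and effects were rated 0–5 after three weeks.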

For experiment [2], the system named is Echinochloa oryzacola Vasing. The experiment is described as above. To be noted: Eighteenth Table; application herbicide amount 320 g/ha. A digest of the protocol: as §1
Experiment [3] has as its system Monochoria vaginalis. The experiment is described as above. To be noted: Eighteenth Table; application herbicide amount 320 g/ha. Put shortly: as §1
For experiment [4], the system named is Apera spica-venti. The experiment is described as follows: Test Example 4: herbicidal effect by application to foliage (diluvial soil, plastic box). To be noted: for L: Application herbicide amount 320 g/ha. A digest of the protocol: (§2)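 Greenhouse plants (25° C. to 30° C., 14 d, diluvial soil) receive a foliar spray of water-diluted emulsifiable formulation at defined g/ha. Grading after 3 weeks uses a six-step herbicidal-ratio scale, with 4 covering 70% to <90% and 1 covering 5% to <20%.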

For experiment [5], the system named is Digitaria ciliaris. Described as above. The settings on record: for F: Application herbicide amount 320 g/ha. Put shortly:
as §2

For experiment [6], the system named is Abutilon theophrasti. The description is as above. The settings on record: for M: Application herbicide amount 320 g/ha. Put shortly:
as §2

Experiment [7] deals with Avena fatua. The description is as above. To be noted: for I: Application herbicide amount 320 g/ha. A digest of the protocol:
as §2

For experiment [8], the system named is Galium spurium. The description is as above. To be noted: for Q: Application herbicide amount 320 g/ha. A digest of the protocol: as §2
In experiment [9] the test system is Setaria viridis. The experiment is described as above. To be noted: for G: Application herbicide amount 320 g/ha. A digest of the protocol:
as §2

In experiment [10] the test system is Veronica persica. Described as above. To be noted: for R: Application herbicide amount 320 g/ha. Put shortly: as §2
Experiment [11] relates to Chenopodium album. The experiment is described as above. The settings on record: for O: Application herbicide amount 320 g/ha. Put shortly:
as §2

Experiment [12] relates to Echinochloa crus-galli var. crus-galli. The description is as above. To be noted: for H: Application herbicide amount 320 g/ha. A digest of the protocol: as §2
Experiment [13] concerns Alopecurus myosuroides. The experiment is described as above. The settings on record: for J: Application herbicide amount 320 g/ha. Put shortly:
as §2

Experiment [14] concerns Lolium multiflorum Lam. Described as above. To be noted: for K: Application herbicide amount 320 g/ha. Put shortly: as §2
[15] abbreviates: application to foliage, application herbicide amount 320 g/ha.

`COCCSc1nnc2c(C(=O)Nc3nnc(C)o3)ccc(C(F)(F)F)n12` [1-063]: in experiment [1], the “B (Scirpus juncoides) herbicidal ratio grade” value was 3 (Herbicidal ratio of 40% or more and less than 70%). In experiment [2], the “A (Echinochloa oryzicola Vasing.) herbicidal ratio grade” value was 4 (Herbicidal ratio of 70% or more and less than 90%). In [3], the “C (Monochoria vaginalis) herbicidal ratio grade” value is 2 (Herbicidal ratio of 20% or more and less than 40%). For the same compound, the L in experiment [4] is 3 (Herbicidal ratio of 40% or more and less than 70%). For the same compound, the F in experiment [5] was 5 (Herbicidal ratio of 90% or more (almost completely withered)). In addition, the M in experiment [6] was 4 (Herbicidal ratio of 70% or more and less than 90%). Also, the I in experiment [7] is 2 (Herbicidal ratio of 20% or more and less than 40%). Also, in [8], the Q is 3 (Herbicidal ratio of 40% or more and less than 70%). In experiment [9], the G was 5 (Herbicidal ratio of 90% or more (almost completely withered)). Besides, the R in experiment [10] is given as 5 (Herbicidal ratio of 90% or more (almost completely withered)). The O in experiment [11] was 5 (Herbicidal ratio of 90% or more (almost completely withered)). Also, the H in experiment [12] is given as 5 (Herbicidal ratio of 90% or more (almost completely withered)). Moreover, the J in [13] was 2 (Herbicidal ratio of 20% or more and less than 40%). Further, the K in [14] is 2 (Herbicidal ratio of 20% or more and less than 40%).

For the compound `C=CCSc1nnc2c(C(=O)Nc3nnc(C)o3)ccc(C(F)(F)F)n12` [1-064], in experiment [1], the “B (Scirpus juncoides) herbicidal ratio grade” value is 3 (Herbicidal ratio of 40% or more and less than 70%). The “A (Echinochloa oryzicola Vasing.) herbicidal ratio grade” value in experiment [2] is 2 (Herbicidal ratio of 20% or more and less than 40%). Further, the “C (Monochoria vaginalis) herbicidal ratio grade” value in experiment [3] is 2 (Herbicidal ratio of 20% or more and less than 40%). In experiment [4], the L is 1 (Herbicidal ratio of 5% or more and less than 20%). In addition, in experiment [5], the F is 5 (Herbicidal ratio of 90% or more (almost completely withered)). In addition, the M in [6] was 3 (Herbicidal ratio of 40% or more and less than 70%). Further, in experiment [7], the I is 1 (Herbicidal ratio of 5% or more and less than 20%). Besides, the Q in [8] was 3 (Herbicidal ratio of 40% or more and less than 70%). In addition, the G in experiment [9] is 4 (Herbicidal ratio of 70% or more and less than 90%). In addition, the R in experiment [10] was 3 (Herbicidal ratio of 40% or more and less than 70%). Moreover, in experiment [12], the H is 5 (Herbicidal ratio of 90% or more (almost completely withered)). For the same compound, the J in [13] is 1 (Herbicidal ratio of 5% or more and less than 20%). Also, the K in [14] is 1 (Herbicidal ratio of 5% or more and less than 20%).

Take `COC1CCC(c2nnc3c(C(=O)Nc4nnc(C)o4)ccc(C(F)(F)F)n23)CC1` (centres unmarked) [1-169]: in [1], the “B (Scirpus juncoides) herbicidal ratio grade” value was 4 (Herbicidal ratio of 70% or more and less than 90%). For the same compound, in experiment [2], the “A (Echinochloa oryzicola Vasing.) herbicidal ratio grade” value is 3 (Herbicidal ratio of 40% or more and less than 70%). Moreover, the “C (Monochoria vaginalis) herbicidal ratio grade” value in [3] was 4 (Herbicidal ratio of 70% or more and less than 90%). Also, the “L: herbicidal effect on Apera spica-venti.” value in experiment [4] (setting [15]) is 1 (Herbicidal ratio of 5% or more and less than 20%). In addition, in [5] (setting [15]), the “F: herbicidal effect on Digitaria ciliaris” value is 4 (Herbicidal ratio of 70% or more and less than 90%). Also, the “M: herbicidal effect on Abutilon theophrasti” value in experiment [6] (setting [15]) is 3 (Herbicidal ratio of 40% or more and less than 70%). Besides, the “I: herbicidal effect on Avena fatua” value in [7] (setting [15]) was 1 (Herbicidal ratio of 5% or more and less than 20%). Further, the “Q: herbicidal effect on Galium spurium” value in experiment [8] (setting [15]) was 1 (Herbicidal ratio of 5% or more and less than 20%). The “G: herbicidal effect on Setaria viridis” value in experiment [9] (setting [15]) was 3 (Herbicidal ratio of 40% or more and less than 70%). Besides, in [10] (setting [15]), the “R: herbicidal effect on Veronica persica” value is 4 (Herbicidal ratio of 70% or more and less than 90%). For the same compound, the “O: herbicidal effect on Chenopodium album” value in experiment [11] (setting [15]) was 5 (Herbicidal ratio of 90% or more (almost completely withered)). Also, the “H: herbicidal effect on Echinochloa crus-galli var. crus-galli” value in experiment [12] (setting [15]) is on record as 5 (Herbicidal ratio of 90% or more (almost completely withered)). In addition, in [13] (setting [15]), the “J: herbicidal effect on Alopecurus myosuroides” value is 1 (Herbicidal ratio of 5% or more and less than 20%). Further, in experiment [14] (setting [15]), the “K: herbicidal effect on Lolium multiflorum Lam.” value was 1 (Herbicidal ratio of 5% or more and less than 20%).

With `Cc1nnc(NC(=O)c2ccc(C(F)(F)F)n3c(CC4CC4)nnc23)o1` [1-104], the “B (Scirpus juncoides) herbicidal ratio grade” value in experiment [1] was 3 (Herbicidal ratio of 40% or more and less than 70%). Further, the “A (Echinochloa oryzicola Vasing.) herbicidal ratio grade” value in experiment [2] is 4 (Herbicidal ratio of 70% or more and less than 90%). The “C (Monochoria vaginalis) herbicidal ratio grade” value in experiment [3] was 3 (Herbicidal ratio of 40% or more and less than 70%). Also, the L in [4] was 2 (Herbicidal ratio of 20% or more and less than 40%). Further, in [5], the F is given as 5 (Herbicidal ratio of 90% or more (almost completely withered)). Besides, in [6], the M is 4 (Herbicidal ratio of 70% or more and less than 90%). Besides, in [7], the I is 4 (Herbicidal ratio of 70% or more and less than 90%). Further, the Q in experiment [8] was 3 (Herbicidal ratio of 40% or more and less than 70%). Besides, in experiment [9], the G is listed as 5 (Herbicidal ratio of 90% or more (almost completely withered)). The R in experiment [10] is 4 (Herbicidal ratio of 70% or more and less than 90%). Also, the O in [11] was 5 (Herbicidal ratio of 90% or more (almost completely withered)). In addition, in experiment [12], the H is 5 (Herbicidal ratio of 90% or more (almost completely withered)). Besides, the J in experiment [13] was 1 (Herbicidal ratio of 5% or more and less than 20%). Moreover, the K in experiment [14] was 1 (Herbicidal ratio of 5% or more and less than 20%).

As for `Cc1nnc(NC(=O)c2ccc(C(F)(F)F)n3c(-c4cc5ccccc5n4C)nnc23)o1` [1-059], in experiment [1], the “B (Scirpus juncoides) herbicidal ratio grade” value is 3 (Herbicidal ratio of 40% or more and less than 70%). The “A (Echinochloa oryzicola Vasing.) herbicidal ratio grade” value in [2] is 2 (Herbicidal ratio of 20% or more and less than 40%). The “C (Monochoria vaginalis) herbicidal ratio grade” value in [3] is 2 (Herbicidal ratio of 20% or more and less than 40%). Moreover, in experiment [4], the L was 0 (Herbicidal ratio of 5% or less (almost no effect)). Also, the F in experiment [5] is 0 (Herbicidal ratio of 5% or less (almost no effect)). Moreover, in [6], the M was 4 (Herbicidal ratio of 70% or more and less than 90%). In experiment [7], the I is listed as 0 (Herbicidal ratio of 5% or less (almost no effect)). Besides, the Q in experiment [8] is recorded as 0 (Herbicidal ratio of 5% or less (almost no effect)). Also, in experiment [9], the G was 0 (Herbicidal ratio of 5% or less (almost no effect)). In addition, the R in experiment [10] is 2 (Herbicidal ratio of 20% or more and less than 40%). Moreover, in experiment [11], the O is reported as 5 (Herbicidal ratio of 90% or more (almost completely withered)). Also, in experiment [12], the H was 2 (Herbicidal ratio of 20% or more and less than 40%). Besides, in experiment [13], the J is listed as 0 (Herbicidal ratio of 5% or less (almost no effect)). Moreover, the K in [14] is 0 (Herbicidal ratio of 5% or less (almost no effect)).

As for `COCCOC(=O)Cc1nnc2c(C(=O)Nc3nnc(C)o3)ccc(C(F)(F)F)n12` [1-060], the “B (Scirpus juncoides) herbicidal ratio grade” value in [1] was 3 (Herbicidal ratio of 40% or more and less than 70%). Moreover, the “A (Echinochloa oryzicola Vasing.) herbicidal ratio grade” value in experiment [2] was 2 (Herbicidal ratio of 20% or more and less than 40%). Besides, the “C (Monochoria vaginalis) herbicidal ratio grade” value in experiment [3] is 2 (Herbicidal ratio of 20% or more and less than 40%). For the same compound, in experiment [4], the L is 1 (Herbicidal ratio of 5% or more and less than 20%). The F in experiment [5] is reported as 5 (Herbicidal ratio of 90% or more (almost completely withered)). Besides, the M in experiment [6] is 4 (Herbicidal ratio of 70% or more and less than 90%). The I in experiment [7] is 3 (Herbicidal ratio of 40% or more and less than 70%). Moreover, the Q in [8] is 3 (Herbicidal ratio of 40% or more and less than 70%). Besides, in experiment [9], the G was 3 (Herbicidal ratio of 40% or more and less than 70%). For the same compound, in experiment [10], the R was 5 (Herbicidal ratio of 90% or more (almost completely withered)). Besides, in [11], the O is recorded as 5 (Herbicidal ratio of 90% or more (almost completely withered)). The H in experiment [12] was 5 (Herbicidal ratio of 90% or more (almost completely withered)). The J in experiment [13] is 2 (Herbicidal ratio of 20% or more and less than 40%). The K in [14] was 2 (Herbicidal ratio of 20% or more and less than 40%).
